# Columns and labels:
# Format in all cases: in vivo
# Bemisia tabaci = assay: Silver leaf whitefly incidence on tomato leaves; conditions: 4 mM Phe solution, drench or spray, each treatment; 30 days after treatment; FIG. 10
# Protocol: FIG. 10 is a bar graph showing the effect of 4 mM Phe solution on the severity of silver leaf white fly (SLWF) on tomato plants. The Phe solution was applied by spraying and by drench on the tomato plants at 3 days before and 4 hours before incubation in the greenhouse. Incidence of SLWF was evaluated on a representative leaf 30 days after treatment.
# The insect silver leaf whitefly Bemisia tabaci Gennadius (commonly also sweet potato whitefly) occurred naturally on the treated tomato plants. The plants were kept in a greenhouse with 18-28° C. Incidence of insect individuals' number on the 10th leaf of the tomato plants was counted.
# [1] = tested on: Colletotrichum gloeosporioides; assay: Postharvest decay of 'Shelly' mango fruit, wound inoculated; conditions: for Inhibition of pathogenic activity: postharvest, mango
# Protocol: (§1) FIGS. 4A-4B are graphs showing induced resistance of harvested Mango fruit to fungal pathogens. FIG. […] A day later the treated or untreated fruits were wound inoculated on four spots in each fruit with 7 μl of Lasiodiplodia theobromas conidia suspension (10^6 conidia/ml) and the decay area was monitored for 7 days post inoculation (dpi). FIG. […] A day later the treated or untreated fruits were wound inoculated on four spots in each fruit with 7 μl of Colletotrichum gloeosporioides conidia suspension (10^6 conidia/ml) and the decay area was monitored for 14 days post inoculation (dpi).
# Lasiodiplodia theobromae = assay: as above; conditions: for Inhibition of pathogenic activity: postharvest, mango
# Protocol: as §1
# Botrytis cinerea = assay: Tomato gray mold severity on leaves of tomato plants
# Protocol: Plants of tomato (Solanum esculentum) and cucumber (Cucumis sativus) were grown from seeds in a nursery and transplanted into 1-liter pots at 40 to 50 days after seeding in an unheated greenhouse. Plants were fertilized proportionally with drippers 2-3 times per day with 5:3:8 NPK fertilizer (irrigation water was planned to have total N, P and K concentrations of 120, 30 and 150 mg/L, respectively; EC 2.2 dS/m), allowing for 25-50% drainage. Plants were maintained at 20 to 30° C. with natural light, and relative humidity of 50-90% in a pest- and disease-free greenhouse during the growth period and then transferred to an area where diseases were allowed to develop following pathogen infection on intact leaves as described below.
# Treatments in experiments were replicated 5-10 times. Replicates of each treatment were arranged randomly. Disease severity data in percentages were arcsin-transformed before further analysis. Disease severity data were analyzed using ANOVA and Fisher's protected LSD test. Standard errors (SE) of the means were calculated and disease levels were statistically separated (P≤0.05) following a one-way analysis of variance. A control experiment presents the severity of the disease with application of only water without the Phe.
# Gray mold inducing pathogen Botrytis cinerea [Pers.:Fr. [Teleomorph: Botryotinia fuckeliana (de Bary) Whetzel] (isolate BcI16; [Swartzberg D. et al., Eur. J. Plant Pathol., 2008, 120:289-297])] was cultured on potato dextrose agar (PDA, Difco, Detroit, Mich.) in 90 mm diam. petri dishes containing 15 ml PDA each and incubated at 20° C. The inoculum was maintained on PDA and transferred every two weeks. Gray mold conidia were harvested from 10 to 14-day-old cultures by agitating 1 cm^2 of agar bearing mycelium and conidia in a glass tube with tap water. The suspension was then filtered through cheesecloth. The concentration of conidia was determined using a hemocytometer and a light microscope, and adjusted to 5×10^5 conidia/ml. Since B. cinerea conidia need carbon and phosphate for germination and penetration, 0.1% glucose was added to the final conidial suspension together with 0.1% KH2PO4. […] Plant attached tomato leaves were examined. Whole plants were kept in a humidity chamber at 20±1° C., 97±3% RH, and 1,020 lux light intensity. Plants were infected by spraying the whole plant with 2 ml of a 5×10^5 conidia/ml suspension or were infected after wounding with a needle and dropping 10 μL drops of conidia suspension prepared as mentioned above. Disease severity was evaluated on each plant using a pictorial key; 0=no infection (all leaves are symptomless) and 100=all leaves are fully covered by gray mold symptoms.
# [2] = Mango fruit decay in cold storage after post-harvest treatment
# Protocol: FIGS. 19A-19G are images and graphs showing the effect of Phe solution on fruit post-harvest rotting under cold temperature resistance. (19A-19B) are images showing post-harvest control and treated mango fruits, respectively, stored in 7° C. […] (19C-19D) are vertical bar graphs showing indices of spots (19C) and pitting (19D) of mango fruits infected by Colletotrichum or Lasiodiplodia under 7° C. (19E-19G) are vertical bar graph showing […] decay was shown at 7° C., and side decay and total decay were shown at 7° C. and 10° C.
# Mango fruits were treated with Phe solution post-harvest. Fruits were stored in either 7° C. or 10° C., and decay was inspected and documented. Post-harvest treatment as described hereinabove reduced stem decay, side decay, and total decay (FIGS. 19E-19G). […] Fruits were both treated with AAA and infested with […] post-harvest. […] (FIGS. 19C-19D).
# [3] = Plant growth performance parameters after pre-harvest treatment
# Protocol: FIGS. 20A-20I are images and graphs showing the effects of Phe solution on plant growth performance parameters. (20A) is images of plants treated with 2 mM once or twice, once with 4 mM or non-treated (control). (20B-20C) are bar graphs showing plant height (20B) and the % increase in the plant height (20C) in treated and control plants. (20D-20E) are bar graphs showing the number of nodes per plant (20D) and the % increase in the number of nodes (20E) in treated and control plants. (20F-20G) are bar graphs showing the % increase in leaf length (20F) and the % increase in the leaf area (20G) in treated and control plants. (20H-20I) are bar graphs showing plant fresh (e.g., “wet”) weight […] and plant dry weight (20I) in treated and control plants.
# Plant were treated with Phe solution pre-harvest, and growth performance parameters, including total height, total weight (“wet” and dry), number of nodes, leaf length, and leaf area were examined.
# [4] = postharvest treatment of 'Shelly' mango, FIG. 4
structure (smiles),measurement,setting,value
"N[C@@H](Cc1ccccc1)C(=O)O [Phe, Phenylalanine]",Incidence of the Bemisia tabaci silver leaf whitefly on tomato leaves,Bemisia tabaci,significantly suppressed
same,Inhibition of pathogenic activity,[1]; 2 mM phenylalanine,did not suffice
same,Inhibition of pathogenic activity,[1]; 4 mM phenylalanine,substantially inhibited the pathogenic activity
same,Decay severity in comparison to the untreated control fruits,[1]; [4],reduced the decay severity
same,Inhibition of pathogenic activity,Lasiodiplodia theobromae; 2 mM phenylalanine,did not suffice
same,Inhibition of pathogenic activity,Lasiodiplodia theobromae; 4 mM phenylalanine,substantially inhibited the pathogenic activity
same,Decay severity in comparison to the untreated control fruits,Lasiodiplodia theobromae; [4],reduced the decay severity
same,Disease control effect on severity of tomato gray mold,"Botrytis cinerea; 4 mM vs 2 mM Phe, drench to the root zone, FIG. 14",significantly better disease control effect than 2 mM
same,Disease control effect on severity of tomato gray mold,"Botrytis cinerea; 4 mM vs 2 mM Phe, sprayed or drenched, wound infection, 1-4 mM series, FIG. 16",significantly better disease control effect than 2 mM
same,Disease control effect on severity of tomato gray mold,"Botrytis cinerea; 4 mM vs 2 mM Phe, sprayed or drenched, wound infection, 2-4 mM series, FIG. 17",significantly better disease control effect than 2 mM
same,Disease control effect on severity of tomato gray mold,"Botrytis cinerea; 4 and 8 mM vs 2 mM Phe, sprayed, FIG. 15",significantly better disease control effect than 2 mM
same,Stem decay,"[2]; post-harvest Phe solution, mango stored at 7° C. or 10° C., FIG. 19E",reduced
same,Side decay,"[2]; post-harvest Phe solution, mango stored at 7° C. or 10° C., FIG. 19F",reduced
same,Total decay,"[2]; post-harvest Phe solution, mango stored at 7° C. or 10° C., FIG. 19G",reduced
same,"Black spots on fruits, control versus treated","[2]; post-harvest mango fruits stored in 7° C., FIGS. 19A-19B",Control fruits were shown to have substantially more black spots
same,Plant height,"[3]; 2 mM or 4 mM of Phe vs control, FIGS. 20A-20C",significantly higher than control
same,"Final weight at harvest, total ""wet"" weight","[3]; Phe treated vs control, FIG. 20H",significantly greater than control
same,"Final weight at harvest, total dry biomass","[3]; Phe treated vs control, FIG. 20I",significantly greater than control
same,Number of nodes on the plant's stem,"[3]; Phe treated vs control, FIGS. 20D-20E",increase in height was also correlated with the number of nodes
same,Leaf length,[3]; control compared to plants treated with 4 mM Phe,control plants had significantly shorter leaves
same,Leaf area,"[3]; control compared to plants treated with Phe, 2 mM or 4 mM once a week",reduced leaf area compared to those of plants treated with Phe

# Reference: patent publication US20200383327A1, “METHOD OF IMPROVING PLANT PERFORMANCE” (The State of Israel, Ministry of Agriculture & Rural …, priority 2018, published 2020)
